Measurements as given in PMC7792806, “Development of Second Generation Activity-Based Chemical Probes for Sirtuins” (Molecules, 2020).

Legend:
SIRT6H133Y = SIRT6H133Y (Homo sapiens, UniProt Q8N6T7, H133Y); assay: Labeling of catalytically inactive mutant SIRT6H133Y; format: biochemical
Procedure: (§1) Remarkably, probe 2C was also able to label individual sirtuin isoforms in cell lysates. HEK293 cells overexpressing human SIRT2 were lysed, and the lysate was subjected to the labeling by 10 μM probe 2C.
(§2) A typical labeling experiment was performed as follows: in a 0.7 mL Eppendorf tube, purified recombinant human sirtuin (10 μM) was incubated with NAD^+ (500 μM) and activity-based probe at 37 °C for 10 min. The sample was transferred to a clear-bottom 96-well plate, placed on ice, and irradiated at 365 nm with a UV-lamp in a cold room. Subsequently, ingredients of the “click-chemistry” including azide-fluor 545, CuSO4, reducing agent (tris(2-carboxyethyl)phosphine, TCEP) and stabilizing agent (tris[(1-benzyl-1H-1,2,3-triazol-4-yl)methyl]amine, TBTA) were added, and the sample was gently agitated at 250 rpm on a microshaker at room temperature for 30 min. Then, the sample was resolved by SDS-PAGE. To […] the signal to noise ratio, the gel was destained to eliminate non-specific binding of free dyes. This was done in a mixture of methanol/distilled water/acetic acid (v/v/v = 4/5/1) at ambient temperature for 4 h. Then, destained gel was analyzed with in-gel fluorescence scanning using a Biorad ChemiDoc MP imager (excitation 532 nm, 580 nm cut-off filter and 30 nm band-pass). Finally, Coomassie blue staining was applied to provide loading control.

SIRT6 = SIRT6 (Homo sapiens, UniProt Q8N6T7); assay: Western blot of H3K9Ac in HEK293 cells; format: cell-based
Source text: The ABPs structurally mimic acylated lysine substrates. However, the presence of substituents could potentially alter their cell permeability, cellular distribution, and target engagement ability. It is essential to determine if these probes are cell permeable and capable of inhibiting endogenous sirtuin activity. The sirtuin family of proteins are often referred to as the class III histone deacetylases (HDACs). Unlike class I and class II HDACs, which are Zn^2+-dependent, sirtuins are NAD^+-dependent. […] Similarly, other sirtuins may not be the only deacetylase of their endogenous substrates. Therefore, the inhibitory effect of the other ABPs may only become apparent when class I/II HADCs are inhibited at the same time. HEK293 cells were cultured in the presence of probe 2C and/or other HDAC inhibitors. Subsequently, the cell lysates were collected and probed for acetylated H3K9 (H3K9Ac), which is an endogenous substrate of SIRT6.
(§3) The cell lysate was resolved on a 10% SDS-PAGE gel and transferred to Immobilon PVDF transfer membrane (Millipore, Burlington, MA, USA). The blot was blocked with 5% nonfat milk, probed with primary antibody targeting H3K9Ac (Sigma-Aldrich, St. Louis, MO, USA), H3 (Abcam, Cambridge, MA, USA), acetyllysine or CPS1 (Cell Signaling Technology, Beverly, MA, USA), washed with PBST, followed by incubation with anti-rabbit or anti-mouse HRP conjugated secondary antibody. Then, the signal was detected by SuperSignal West Pico Chemiluminescent substrate (Thermo Fisher Scientific, Rockford, IL, USA).

[1] = biological target: T1, wild-type SIRT6 (wtSIRT6) (Homo sapiens, UniProt Q8N6T7); assay: Labeling of wild-type SIRT6; format: biochemical
T1 construct: host or cells: E. coli (inferred from b12)
Procedure: as §1, §2

SIRT5 [2] = biological target: T2, SIRT5 (Homo sapiens, UniProt Q9NXA8); assay: Western blot of CPS1Ac in HEK293 cells; format: cell-based
T2 construct: endogenous in cells; host or cells: HEK293
T2 sequence (Q9NXA8 37-310): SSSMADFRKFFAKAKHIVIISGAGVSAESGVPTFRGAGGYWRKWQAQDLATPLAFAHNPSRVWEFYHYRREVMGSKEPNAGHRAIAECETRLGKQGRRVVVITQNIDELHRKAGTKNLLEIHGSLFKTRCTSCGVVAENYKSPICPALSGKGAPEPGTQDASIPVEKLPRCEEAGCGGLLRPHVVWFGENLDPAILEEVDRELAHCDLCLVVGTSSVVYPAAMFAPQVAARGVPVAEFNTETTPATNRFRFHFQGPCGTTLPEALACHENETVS
Procedure: The cellular activity of probes 2A and 2B was also investigated. […] SIRT5 is known to deacetylate and activate carbamoyl phosphate synthetase I (CPS1), which is the enzyme catalyzing the first step of the urea cycle. Cells were treated with either probe 2B or a known SIRT5 inhibitor, suramin, before the acetylation level of CPS1 (CPS1Ac) was examined.
as §3

SIRT5 [3] = biological target: T3, SIRT5 (Homo sapiens, UniProt Q9NXA8); assay: Labeling of SIRT5 in partially purified recombinant sirtuin mixture and peptide competition; format: biochemical; details: 500 μM NAD+, increasing concentrations of probe, 20 min irradiation
T3 construct: SIRT5 (34-302); made in house
T3 sequence (Q9NXA8 34-302): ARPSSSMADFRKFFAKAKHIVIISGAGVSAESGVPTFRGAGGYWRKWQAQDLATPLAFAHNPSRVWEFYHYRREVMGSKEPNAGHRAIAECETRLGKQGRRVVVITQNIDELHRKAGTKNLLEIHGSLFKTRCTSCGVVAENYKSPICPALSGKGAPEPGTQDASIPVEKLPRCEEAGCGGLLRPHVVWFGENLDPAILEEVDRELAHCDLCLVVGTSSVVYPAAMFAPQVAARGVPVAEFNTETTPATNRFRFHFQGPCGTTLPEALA
Source text: Probe 2B, being a selective SIRT5 inhibitor, was also selective for SIRT5 in the labeling experiments. […] The on-target effect of probe 2B was further confirmed by the peptide competition analysis. H3K9Suc (Figure 4B), a synthetic peptide that is identical to the N-terminus of histone H3 bearing a succinylated lysine 9 mark, is a known SIRT5 substrate. H3K9Suc was titrated into SIRT5 in the presence of probe 2B.
Figure 4 Labeling of SIRT5 by probe 2B. (A) Dose-dependent labeling of SIRT5 by probe 2B in recombinantly expressed, partially purified sirtuin mixture. SIRT1, SIRT2, SIRT3, SIRT5, and SIRT6 were mixed and incubated with 500 μM NAD^+ and increasing concentrations of 2B. The samples were incubated at 37 °C for 10 min and subjected to UV irradiation for 20 min, and then “click” conjugated to TAMRA-azide; (B) Chemical structure of H3K9Suc; (C) Peptide competition. The labeling of SIRT5 by probe 2B decreased with increasing concentrations of the competitor peptide, H3K9Suc.
A typical labeling experiment was performed as follows: in a 0.7 mL Eppendorf tube, purified recombinant human sirtuin (10 μM) was incubated with NAD^+ (500 μM) and activity-based probe at 37 °C for 10 min. […] Then, destained gel was analyzed with in-gel fluorescence scanning using a Biorad ChemiDoc MP imager (excitation 532 nm, 580 nm cut-off filter and 30 nm band-pass). […]

Sequence of SIRT6 (Q8N6T7 whole entry): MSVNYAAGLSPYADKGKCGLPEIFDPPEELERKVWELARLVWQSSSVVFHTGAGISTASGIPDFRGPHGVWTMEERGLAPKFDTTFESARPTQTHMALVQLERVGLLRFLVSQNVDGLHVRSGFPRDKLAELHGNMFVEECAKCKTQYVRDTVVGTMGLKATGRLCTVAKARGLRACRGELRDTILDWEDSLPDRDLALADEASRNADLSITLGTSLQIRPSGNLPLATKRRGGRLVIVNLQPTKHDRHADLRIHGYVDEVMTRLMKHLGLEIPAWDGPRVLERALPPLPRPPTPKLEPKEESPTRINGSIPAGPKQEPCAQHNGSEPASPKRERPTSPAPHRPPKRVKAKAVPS
T1 sequence (Q8N6T7 whole entry): as above
Sequence of SIRT6H133Y (Q8N6T7 whole entry H133Y, canonical isoform): as the sequence (Q8N6T7 whole entry) above, with H133Y counted along it

Row | SMILES | labeling of SIRT6H133Y (SIRT6H133Y) | H3K9Ac level, combination with TSA (SIRT6; combined with TSA) | H3K9Ac level, treatment alone (SIRT6; single agent) | labeling of wtSIRT6 [1] | CPS1Ac level compared to control (SIRT5 [2]) | labeling of SIRT5 in sirtuin mixture (SIRT5 [3])
1 | C#CCCCC1(CCC(=O)N[C@@H](CCCCNC(=S)CCCCCCCCCCCCC)C(=O)N[C@@H](C)C(=O)N[C@@H](C)C(=O)OC)N=N1 [Probe 2C] | failed to label | significantly elevated level of H3K9Ac | did not cause any appreciable changes | concentration-dependent labeling of wild-type SIRT6 |  | 
2 | C#CCCCC1(CCC(=O)N[C@@H](CCCCNC(=S)CCC(=O)O)C(=O)N[C@@H](C)C(=O)N[C@@H](C)C(=O)OC)N=N1 [Probe 2B] |  |  |  |  | increased CPS1Ac level | robust labeling of SIRT5 in a concentration-dependent fashion
